Data set [1] has as its target T1, M-type K+ (KM) channel, KCNQ2 (KV7.2)/KCNQ3 (KV7.3) (Rattus norvegicus, UniProt O88943+O88944).
T1 construct: native channel in pituitary GH3 cells; with KCNQ3 (KV7.3)
The data set can be described thus: whole-cell patch clamp of native IK(M), plus cell-attached single KM channel recordings in GH3 cells. The class given is cell-based. For orientation: Patch clamp records ionic current or voltage across a cell membrane.

Data set [2] concerns the target T2, erg-mediated K+ channel (Kerg, KV11) (Rattus norvegicus, UniProt O08962).
T2 construct: gene Kcnh2; native channel in pituitary GH3 cells
T2 sequence (O08962 1-1163): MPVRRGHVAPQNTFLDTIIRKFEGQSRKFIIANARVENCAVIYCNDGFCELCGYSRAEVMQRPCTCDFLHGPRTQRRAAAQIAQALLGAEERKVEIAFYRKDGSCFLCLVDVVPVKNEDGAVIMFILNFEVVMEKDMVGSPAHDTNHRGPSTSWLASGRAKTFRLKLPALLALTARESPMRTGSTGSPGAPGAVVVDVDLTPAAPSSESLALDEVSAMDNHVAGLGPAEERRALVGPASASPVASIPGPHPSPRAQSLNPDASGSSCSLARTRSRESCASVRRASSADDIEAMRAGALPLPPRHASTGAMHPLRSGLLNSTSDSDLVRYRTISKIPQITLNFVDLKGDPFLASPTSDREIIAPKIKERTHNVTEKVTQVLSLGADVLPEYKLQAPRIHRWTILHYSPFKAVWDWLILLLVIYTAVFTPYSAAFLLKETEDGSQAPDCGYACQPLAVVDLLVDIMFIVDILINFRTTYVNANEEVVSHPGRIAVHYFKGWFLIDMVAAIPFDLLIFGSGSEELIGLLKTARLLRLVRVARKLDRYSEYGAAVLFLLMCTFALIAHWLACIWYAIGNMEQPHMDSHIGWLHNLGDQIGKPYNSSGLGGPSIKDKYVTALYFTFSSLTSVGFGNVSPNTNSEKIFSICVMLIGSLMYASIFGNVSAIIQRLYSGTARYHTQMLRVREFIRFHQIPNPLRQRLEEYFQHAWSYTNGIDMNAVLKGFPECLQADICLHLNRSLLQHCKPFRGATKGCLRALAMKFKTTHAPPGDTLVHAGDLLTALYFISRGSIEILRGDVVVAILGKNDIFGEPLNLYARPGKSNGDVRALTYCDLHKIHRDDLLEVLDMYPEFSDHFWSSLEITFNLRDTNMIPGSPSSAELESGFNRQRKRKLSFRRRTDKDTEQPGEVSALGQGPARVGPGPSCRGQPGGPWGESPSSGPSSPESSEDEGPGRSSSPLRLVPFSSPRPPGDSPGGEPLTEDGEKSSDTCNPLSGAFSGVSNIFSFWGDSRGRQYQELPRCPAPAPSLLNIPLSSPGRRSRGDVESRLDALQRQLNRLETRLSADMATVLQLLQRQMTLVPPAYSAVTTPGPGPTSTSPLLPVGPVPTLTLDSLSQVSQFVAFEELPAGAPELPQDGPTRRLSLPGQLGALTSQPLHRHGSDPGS
In words: whole-cell patch clamp of native IK(erg) in GH3 cells. Type of data set: cell-based.

T1 sequence (O88943 whole entry): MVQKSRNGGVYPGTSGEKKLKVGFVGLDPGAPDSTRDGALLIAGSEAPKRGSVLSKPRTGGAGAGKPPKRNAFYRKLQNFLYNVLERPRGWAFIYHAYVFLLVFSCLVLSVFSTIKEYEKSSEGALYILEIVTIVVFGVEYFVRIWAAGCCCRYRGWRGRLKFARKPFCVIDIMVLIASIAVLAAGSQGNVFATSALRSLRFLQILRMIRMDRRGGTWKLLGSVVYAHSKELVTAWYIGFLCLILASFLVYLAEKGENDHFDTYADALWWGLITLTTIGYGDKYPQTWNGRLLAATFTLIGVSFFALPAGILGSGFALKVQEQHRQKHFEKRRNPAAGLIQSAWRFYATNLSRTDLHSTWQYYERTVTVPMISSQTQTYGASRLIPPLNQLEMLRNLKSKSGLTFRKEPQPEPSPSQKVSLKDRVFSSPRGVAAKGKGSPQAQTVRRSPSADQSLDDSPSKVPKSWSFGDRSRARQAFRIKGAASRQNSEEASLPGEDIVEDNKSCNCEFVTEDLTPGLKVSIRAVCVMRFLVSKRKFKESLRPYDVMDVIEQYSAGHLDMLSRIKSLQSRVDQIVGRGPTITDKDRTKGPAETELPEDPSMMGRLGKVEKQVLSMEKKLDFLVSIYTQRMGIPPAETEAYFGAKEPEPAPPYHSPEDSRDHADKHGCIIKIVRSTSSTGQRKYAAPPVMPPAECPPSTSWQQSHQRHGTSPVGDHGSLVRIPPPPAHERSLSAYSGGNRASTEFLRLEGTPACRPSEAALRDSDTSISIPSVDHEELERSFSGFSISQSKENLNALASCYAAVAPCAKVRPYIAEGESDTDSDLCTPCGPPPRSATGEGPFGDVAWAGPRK
T1 sequence (O88944 whole entry): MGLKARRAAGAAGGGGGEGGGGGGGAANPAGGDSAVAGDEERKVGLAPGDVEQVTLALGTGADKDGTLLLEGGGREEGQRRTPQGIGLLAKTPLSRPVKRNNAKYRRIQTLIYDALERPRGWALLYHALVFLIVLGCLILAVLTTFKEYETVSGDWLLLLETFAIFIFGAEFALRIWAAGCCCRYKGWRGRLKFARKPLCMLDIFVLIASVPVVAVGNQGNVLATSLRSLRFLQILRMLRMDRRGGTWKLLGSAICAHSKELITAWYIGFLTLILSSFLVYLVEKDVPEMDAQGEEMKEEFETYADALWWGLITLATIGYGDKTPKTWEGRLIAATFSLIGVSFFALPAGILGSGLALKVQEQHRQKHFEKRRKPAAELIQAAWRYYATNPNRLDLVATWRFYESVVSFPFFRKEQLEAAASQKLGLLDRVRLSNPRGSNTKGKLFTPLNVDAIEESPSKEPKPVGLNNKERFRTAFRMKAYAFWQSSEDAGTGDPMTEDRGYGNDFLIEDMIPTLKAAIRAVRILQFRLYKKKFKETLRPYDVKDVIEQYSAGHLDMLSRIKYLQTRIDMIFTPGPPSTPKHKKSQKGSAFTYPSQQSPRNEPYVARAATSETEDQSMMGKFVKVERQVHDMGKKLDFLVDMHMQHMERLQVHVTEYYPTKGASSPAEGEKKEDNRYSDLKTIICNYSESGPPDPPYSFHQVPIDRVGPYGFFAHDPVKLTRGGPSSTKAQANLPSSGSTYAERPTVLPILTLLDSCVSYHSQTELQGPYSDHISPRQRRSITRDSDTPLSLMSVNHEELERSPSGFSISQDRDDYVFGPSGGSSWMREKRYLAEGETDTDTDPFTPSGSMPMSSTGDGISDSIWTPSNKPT

A word on the IC50: it is the concentration at which inhibition is half-maximal. Regarding `CC(C)NCC(O)COc1ccc(COCCOC(C)C)cc1` (racemic) [BIS, 1-(propan-2-ylamino)-3-[4-(2-propan-2-yloxyethoxymethyl)phenoxy]propan-2-ol], the results for the IC50 in data set [1] and in data set [2] were 1.21 µM and 6.42 µM, respectively.

The record behind these values is paper PMC6386942, “Bisoprolol, Known to Be a Selective β1-Receptor Antagonist, Differentially but Directly Suppresses IK(M) and IK(erg) in Pituitary Cells and Hippocampal Neurons” (International Journal of Molecular Sciences, 2019).
